Test results as given in ChEMBL document CHEMBL1201862, “PubChem BioAssay data set” (2004).
The source made the active and inactive calls.

How the values were obtained:
[1] = target: Troponin, cardiac muscle (Homo sapiens, UniProt P19429+P45379+P63316); experiment: Fluorescence-based biochemical high throughput dose response assay for activators of the calcium sensitivity of cardiac Regulated Thin Filaments (RTF). [Related pubchem assays (depositor defined):AID493008, AID493018, AID504382, AID504383]; type: protein-complex assay
[2] = test system: H9c2; experiment: cells; type: functional, cell-based; details: Rattus norvegicus, H9c2, Myocardium;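 further: confirmatory concentration-response retest of ultra-high-throughput screening hits for modulation of myocardial damage; cell death induced by hydrogen peroxide oxidative stress; compound pretreatment for 60 min then peroxide exposure for 2 h; potency is for protecting the cells against peroxide damage rather than for killing them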
[3] = target: T1, Heat shock factor protein 1 (Mus musculus, UniProt P38532); experiment: inhibition of MG132-induced HSE-luciferase signal, confirmation, cell-based, NIH3T3, luminescence, dose retest (AID 2382); type: functional;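 further: NIH3T3 fibroblasts with HSF1-driven luciferase reporter stressed by proteasome inhibitor MG132; luminescence from HSF1-driven luciferase expression after 8 hours of MG132 stress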
T1 sequence (P38532 whole entry): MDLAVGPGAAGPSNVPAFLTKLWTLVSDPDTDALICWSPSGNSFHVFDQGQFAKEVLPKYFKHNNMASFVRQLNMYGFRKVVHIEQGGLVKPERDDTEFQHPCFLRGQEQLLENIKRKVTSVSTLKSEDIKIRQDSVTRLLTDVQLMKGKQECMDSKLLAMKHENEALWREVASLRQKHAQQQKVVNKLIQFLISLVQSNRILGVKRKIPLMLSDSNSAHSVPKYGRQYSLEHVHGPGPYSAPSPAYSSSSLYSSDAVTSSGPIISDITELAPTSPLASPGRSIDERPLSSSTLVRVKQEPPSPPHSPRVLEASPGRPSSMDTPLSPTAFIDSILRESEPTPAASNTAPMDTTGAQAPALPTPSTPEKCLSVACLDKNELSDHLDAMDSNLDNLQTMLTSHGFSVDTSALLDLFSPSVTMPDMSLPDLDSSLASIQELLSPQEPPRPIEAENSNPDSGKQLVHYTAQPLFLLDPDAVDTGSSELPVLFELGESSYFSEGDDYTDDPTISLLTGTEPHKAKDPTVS

[4] = target: T2, Coagulation factor XII (Homo sapiens, UniProt P00748); type: functional;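 further: activated factor XIIa alpha cleaving a fluorogenic AMC peptide substrate; inhibitor potency from loss of enzyme activity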
T2 sequence (P00748 whole entry): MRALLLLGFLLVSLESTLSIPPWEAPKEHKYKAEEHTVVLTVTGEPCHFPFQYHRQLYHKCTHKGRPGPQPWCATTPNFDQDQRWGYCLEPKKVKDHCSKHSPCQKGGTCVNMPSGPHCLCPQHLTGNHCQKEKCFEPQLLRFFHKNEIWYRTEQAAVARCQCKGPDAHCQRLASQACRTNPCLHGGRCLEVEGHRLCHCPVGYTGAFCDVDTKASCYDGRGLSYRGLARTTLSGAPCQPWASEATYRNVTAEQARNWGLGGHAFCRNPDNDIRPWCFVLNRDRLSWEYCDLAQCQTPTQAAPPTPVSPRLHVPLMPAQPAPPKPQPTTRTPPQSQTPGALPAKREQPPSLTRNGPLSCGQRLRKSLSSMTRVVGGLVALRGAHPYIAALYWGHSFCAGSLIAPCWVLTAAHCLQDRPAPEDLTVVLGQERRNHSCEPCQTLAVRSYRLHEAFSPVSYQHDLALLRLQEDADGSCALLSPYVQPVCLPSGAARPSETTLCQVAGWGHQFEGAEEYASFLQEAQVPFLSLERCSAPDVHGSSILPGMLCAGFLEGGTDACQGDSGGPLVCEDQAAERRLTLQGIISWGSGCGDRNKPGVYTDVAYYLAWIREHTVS

[5] = target: T3, Calpain-2 catalytic subunit (Sus scrofa, UniProt P43367); experiment: pig calpain II inhibitor potency, dose response, biochemical, fluorogenic peptide substrate (AID 1420); type: functional
T3 sequence (P43367 whole entry): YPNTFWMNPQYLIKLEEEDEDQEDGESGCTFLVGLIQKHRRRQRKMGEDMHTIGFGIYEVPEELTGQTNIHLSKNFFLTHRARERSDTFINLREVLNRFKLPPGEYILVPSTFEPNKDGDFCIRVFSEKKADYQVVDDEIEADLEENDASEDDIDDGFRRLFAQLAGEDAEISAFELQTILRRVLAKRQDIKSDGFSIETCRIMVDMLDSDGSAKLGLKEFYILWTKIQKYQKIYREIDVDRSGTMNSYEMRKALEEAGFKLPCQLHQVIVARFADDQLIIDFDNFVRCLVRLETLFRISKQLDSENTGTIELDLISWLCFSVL

[6] = target: T4, Intestinal-type alkaline phosphatase (Homo sapiens, UniProt P09923); experiment: human IAP activators, dose response, biochemical, luminescent, uHTS hits, set 2 (AID 488817); type: functional;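 further: potency of activators that raise enzyme activity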
[7] = target: T4, Intestinal-type alkaline phosphatase; experiment: human intestinal alkaline phosphatase activators, dose response, biochemical, luminescence, uHTS hits (AID 463120); type: functional
[8] = target: T5, Alkaline phosphatase, tissue-nonspecific isozyme (Homo sapiens, UniProt P05186); experiment: TNAP enzyme activators, dose response, selectivity assay for human IAP activator project, biochemical, TNAP isozyme, human IAP uHTS hits (AID 488886); type: functional;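 further: potency of compounds raising TNAP activity as a selectivity check on IAP activators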
T5 sequence (P05186 whole entry): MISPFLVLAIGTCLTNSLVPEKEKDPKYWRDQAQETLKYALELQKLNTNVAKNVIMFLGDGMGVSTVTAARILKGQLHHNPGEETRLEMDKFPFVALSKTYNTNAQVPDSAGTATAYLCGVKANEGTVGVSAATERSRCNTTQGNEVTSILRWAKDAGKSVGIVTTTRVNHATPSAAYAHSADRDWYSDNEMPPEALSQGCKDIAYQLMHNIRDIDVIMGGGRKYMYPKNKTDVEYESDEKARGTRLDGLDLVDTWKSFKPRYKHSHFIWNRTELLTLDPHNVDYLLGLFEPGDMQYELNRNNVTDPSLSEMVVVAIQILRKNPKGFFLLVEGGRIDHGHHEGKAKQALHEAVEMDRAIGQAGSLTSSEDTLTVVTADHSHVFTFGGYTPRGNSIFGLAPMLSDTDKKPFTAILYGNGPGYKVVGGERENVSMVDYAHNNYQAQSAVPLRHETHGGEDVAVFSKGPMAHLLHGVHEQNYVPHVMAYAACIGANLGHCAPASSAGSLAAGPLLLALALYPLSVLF

[9] = target: Intestinal-type alkaline phosphatase (Mus musculus, UniProt P24822); experiment: PubChem AID 488875; type: functional
[10] = target: DNA dC->dU-editing enzyme APOBEC-3A (Homo sapiens, UniProt P31941); experiment: Dose Response confirmation of small molecule APOBEC3A DNA Deaminase Inhibitors via a fluorescence-based single-stranded DNA deaminase assay. [Related pubchem assays (depositor defined):AID493011, AID493024]; type: functional
[11] = target: DNA dC->dU-editing enzyme APOBEC-3G (Homo sapiens, UniProt Q9HC16); type: functional;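 further: Dose-response counterscreen measuring inhibition of APOBEC3G DNA deaminase activity, run while confirming APOBEC3A inhibitors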
[12] = target: T6, Carboxy-terminal domain RNA polymerase II polypeptide A small phosphatase 1 (Homo sapiens, UniProt Q9GZU7); experiment: inhibitors of CTDSP1, concentration-response testing, biochemical assay, absorbance-based, actives from ultra-high-throughput screening (AID 540297); type: functional
T6 sequence (Q9GZU7 whole entry): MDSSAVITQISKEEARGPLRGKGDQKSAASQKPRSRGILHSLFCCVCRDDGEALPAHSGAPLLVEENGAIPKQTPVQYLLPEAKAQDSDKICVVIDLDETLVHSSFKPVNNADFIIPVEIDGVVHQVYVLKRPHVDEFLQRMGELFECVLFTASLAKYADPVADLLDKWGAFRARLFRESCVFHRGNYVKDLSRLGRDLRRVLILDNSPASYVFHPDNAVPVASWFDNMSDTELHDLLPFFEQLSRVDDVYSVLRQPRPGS

[13] = target: T7, Voltage-gated N-type calcium channel alpha-1B subunit/Amyloid beta A4 precursor protein-binding family A member 1 (Homo sapiens, UniProt Q00975+Q02410); type: protein assay
[14] = target: T7, Voltage-gated N-type calcium channel alpha-1B subunit/Amyloid beta A4 precursor protein-binding family A member 1; type: protein assay; remark: listed apart in the source

Sequence of DNA dC->dU-editing enzyme APOBEC-3G (Q9HC16 whole entry, the tested form may be a part): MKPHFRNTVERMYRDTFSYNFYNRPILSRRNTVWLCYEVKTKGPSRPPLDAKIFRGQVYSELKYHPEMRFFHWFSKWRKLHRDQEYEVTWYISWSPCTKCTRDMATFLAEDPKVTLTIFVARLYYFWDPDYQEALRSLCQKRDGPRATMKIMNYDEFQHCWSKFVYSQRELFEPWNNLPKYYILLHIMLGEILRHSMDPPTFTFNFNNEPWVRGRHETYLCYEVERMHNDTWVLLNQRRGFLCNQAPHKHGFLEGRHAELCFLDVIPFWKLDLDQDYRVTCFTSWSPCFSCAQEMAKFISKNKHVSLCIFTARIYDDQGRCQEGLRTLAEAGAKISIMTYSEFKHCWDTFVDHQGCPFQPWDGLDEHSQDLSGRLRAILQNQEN
T4 sequence (P09923 whole entry): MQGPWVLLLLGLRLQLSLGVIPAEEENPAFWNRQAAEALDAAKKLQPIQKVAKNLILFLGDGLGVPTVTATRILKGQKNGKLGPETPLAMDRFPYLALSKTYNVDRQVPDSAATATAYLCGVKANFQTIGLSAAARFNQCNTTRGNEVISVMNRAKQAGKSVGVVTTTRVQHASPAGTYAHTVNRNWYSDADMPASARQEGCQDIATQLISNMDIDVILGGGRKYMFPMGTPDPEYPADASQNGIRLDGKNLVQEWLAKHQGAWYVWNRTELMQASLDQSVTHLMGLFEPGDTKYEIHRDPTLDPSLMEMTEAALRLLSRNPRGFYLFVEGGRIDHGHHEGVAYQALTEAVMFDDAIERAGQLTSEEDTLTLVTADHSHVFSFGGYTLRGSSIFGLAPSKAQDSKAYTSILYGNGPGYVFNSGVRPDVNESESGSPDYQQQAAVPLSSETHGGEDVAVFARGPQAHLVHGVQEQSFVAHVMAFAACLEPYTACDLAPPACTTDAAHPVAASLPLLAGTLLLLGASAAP
Sequence of DNA dC->dU-editing enzyme APOBEC-3A (P31941 whole entry): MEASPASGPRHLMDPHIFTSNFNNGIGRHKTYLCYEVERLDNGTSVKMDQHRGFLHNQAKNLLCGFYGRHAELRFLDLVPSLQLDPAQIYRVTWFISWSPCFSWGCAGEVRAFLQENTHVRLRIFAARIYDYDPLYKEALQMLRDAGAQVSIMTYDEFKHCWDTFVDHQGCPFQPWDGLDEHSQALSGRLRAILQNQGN
T7 sequence (Q00975 whole entry): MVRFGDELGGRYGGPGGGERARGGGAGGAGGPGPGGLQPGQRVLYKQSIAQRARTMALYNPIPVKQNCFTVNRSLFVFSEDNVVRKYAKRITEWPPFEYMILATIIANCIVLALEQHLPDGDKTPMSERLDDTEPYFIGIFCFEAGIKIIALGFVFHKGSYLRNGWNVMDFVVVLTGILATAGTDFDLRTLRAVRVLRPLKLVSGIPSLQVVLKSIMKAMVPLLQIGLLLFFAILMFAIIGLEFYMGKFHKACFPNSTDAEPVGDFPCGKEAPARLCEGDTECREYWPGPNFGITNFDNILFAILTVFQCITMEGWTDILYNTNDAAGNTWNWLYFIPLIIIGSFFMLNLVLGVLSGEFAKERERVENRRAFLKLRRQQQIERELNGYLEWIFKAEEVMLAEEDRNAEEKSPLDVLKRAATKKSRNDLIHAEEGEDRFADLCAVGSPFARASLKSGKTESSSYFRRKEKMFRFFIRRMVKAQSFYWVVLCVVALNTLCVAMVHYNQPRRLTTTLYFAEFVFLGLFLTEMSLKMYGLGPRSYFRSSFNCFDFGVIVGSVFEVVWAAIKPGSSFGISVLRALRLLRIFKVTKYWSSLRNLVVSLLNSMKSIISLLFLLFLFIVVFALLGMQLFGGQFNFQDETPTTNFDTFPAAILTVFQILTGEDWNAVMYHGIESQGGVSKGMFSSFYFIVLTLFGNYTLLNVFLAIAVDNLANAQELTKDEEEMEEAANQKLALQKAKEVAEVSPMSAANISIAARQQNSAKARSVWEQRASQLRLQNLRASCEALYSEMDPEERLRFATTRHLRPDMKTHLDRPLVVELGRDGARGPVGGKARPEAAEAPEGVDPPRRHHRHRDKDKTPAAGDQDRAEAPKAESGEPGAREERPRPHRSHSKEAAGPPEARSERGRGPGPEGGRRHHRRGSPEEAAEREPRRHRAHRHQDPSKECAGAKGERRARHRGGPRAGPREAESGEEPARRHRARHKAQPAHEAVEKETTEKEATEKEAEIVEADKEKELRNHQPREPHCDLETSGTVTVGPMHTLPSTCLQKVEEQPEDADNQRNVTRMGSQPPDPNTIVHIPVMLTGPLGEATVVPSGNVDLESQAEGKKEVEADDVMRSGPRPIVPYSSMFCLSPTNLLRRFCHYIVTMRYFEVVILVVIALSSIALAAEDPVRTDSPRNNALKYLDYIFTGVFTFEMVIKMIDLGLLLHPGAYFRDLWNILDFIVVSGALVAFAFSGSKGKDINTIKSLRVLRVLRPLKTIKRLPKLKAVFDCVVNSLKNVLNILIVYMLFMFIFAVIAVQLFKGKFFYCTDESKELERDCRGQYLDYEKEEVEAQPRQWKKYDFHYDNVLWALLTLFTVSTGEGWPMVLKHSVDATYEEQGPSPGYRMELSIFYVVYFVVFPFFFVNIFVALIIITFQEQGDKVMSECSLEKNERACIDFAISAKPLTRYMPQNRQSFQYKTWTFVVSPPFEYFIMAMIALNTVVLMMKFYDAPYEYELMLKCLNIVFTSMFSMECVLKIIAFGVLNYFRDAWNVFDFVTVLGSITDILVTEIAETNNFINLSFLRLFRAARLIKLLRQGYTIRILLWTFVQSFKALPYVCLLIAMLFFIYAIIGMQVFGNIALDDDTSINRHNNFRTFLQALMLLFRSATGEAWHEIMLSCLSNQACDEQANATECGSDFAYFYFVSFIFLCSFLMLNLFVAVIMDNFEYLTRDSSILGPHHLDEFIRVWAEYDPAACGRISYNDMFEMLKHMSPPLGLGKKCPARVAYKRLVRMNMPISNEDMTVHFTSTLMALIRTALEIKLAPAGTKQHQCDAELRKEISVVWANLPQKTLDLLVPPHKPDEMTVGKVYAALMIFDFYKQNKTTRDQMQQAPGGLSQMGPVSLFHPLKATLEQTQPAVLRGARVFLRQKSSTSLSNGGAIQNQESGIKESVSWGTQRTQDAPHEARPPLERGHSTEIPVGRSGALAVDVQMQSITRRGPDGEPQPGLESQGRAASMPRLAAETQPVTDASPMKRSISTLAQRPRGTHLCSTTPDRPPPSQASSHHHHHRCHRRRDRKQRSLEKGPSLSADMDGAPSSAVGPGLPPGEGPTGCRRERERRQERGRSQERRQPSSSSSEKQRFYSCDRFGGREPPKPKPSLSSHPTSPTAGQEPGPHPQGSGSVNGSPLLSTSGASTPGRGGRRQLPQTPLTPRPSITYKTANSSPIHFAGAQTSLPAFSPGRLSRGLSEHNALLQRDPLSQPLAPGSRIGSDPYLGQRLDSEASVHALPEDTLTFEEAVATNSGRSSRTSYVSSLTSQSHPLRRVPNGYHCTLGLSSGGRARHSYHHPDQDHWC
T7 sequence (Q02410 whole entry): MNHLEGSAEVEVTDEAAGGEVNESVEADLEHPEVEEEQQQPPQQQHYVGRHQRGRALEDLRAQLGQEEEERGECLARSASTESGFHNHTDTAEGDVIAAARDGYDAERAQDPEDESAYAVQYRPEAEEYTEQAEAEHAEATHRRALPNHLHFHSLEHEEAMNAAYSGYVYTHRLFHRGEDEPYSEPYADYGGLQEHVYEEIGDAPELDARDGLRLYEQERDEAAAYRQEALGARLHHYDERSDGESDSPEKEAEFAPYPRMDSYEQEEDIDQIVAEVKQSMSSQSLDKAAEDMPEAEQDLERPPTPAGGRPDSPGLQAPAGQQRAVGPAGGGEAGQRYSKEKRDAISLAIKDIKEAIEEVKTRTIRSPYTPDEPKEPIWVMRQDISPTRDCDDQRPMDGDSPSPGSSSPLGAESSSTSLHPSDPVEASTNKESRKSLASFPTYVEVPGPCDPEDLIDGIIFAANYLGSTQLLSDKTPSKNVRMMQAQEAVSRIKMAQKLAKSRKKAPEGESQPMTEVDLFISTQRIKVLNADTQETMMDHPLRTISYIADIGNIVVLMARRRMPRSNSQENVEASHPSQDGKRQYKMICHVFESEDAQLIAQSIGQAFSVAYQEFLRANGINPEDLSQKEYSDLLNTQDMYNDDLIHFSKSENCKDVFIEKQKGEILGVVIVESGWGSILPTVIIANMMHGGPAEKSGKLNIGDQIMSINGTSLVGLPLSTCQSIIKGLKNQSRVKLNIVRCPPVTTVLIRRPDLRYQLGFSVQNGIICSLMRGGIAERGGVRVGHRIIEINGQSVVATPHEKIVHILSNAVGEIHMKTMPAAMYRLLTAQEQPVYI
Sequence of Intestinal-type alkaline phosphatase (Mus musculus, UniProt P24822) (P24822 whole entry): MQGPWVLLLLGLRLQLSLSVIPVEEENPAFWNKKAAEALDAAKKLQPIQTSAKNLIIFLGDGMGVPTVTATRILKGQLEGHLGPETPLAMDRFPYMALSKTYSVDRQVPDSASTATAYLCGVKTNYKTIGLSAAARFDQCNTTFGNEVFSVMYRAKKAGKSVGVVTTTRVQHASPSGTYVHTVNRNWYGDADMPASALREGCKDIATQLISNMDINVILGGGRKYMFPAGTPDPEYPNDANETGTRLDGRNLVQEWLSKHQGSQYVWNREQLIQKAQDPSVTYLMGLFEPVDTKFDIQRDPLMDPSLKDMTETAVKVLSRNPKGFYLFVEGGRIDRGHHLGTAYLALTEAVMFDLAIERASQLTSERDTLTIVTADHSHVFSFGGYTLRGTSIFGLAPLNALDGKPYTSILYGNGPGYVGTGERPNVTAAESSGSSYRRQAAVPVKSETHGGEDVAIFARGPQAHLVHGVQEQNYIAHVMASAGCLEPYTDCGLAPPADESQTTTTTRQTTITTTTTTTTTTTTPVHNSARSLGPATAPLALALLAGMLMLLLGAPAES

## S=C(Nc1ccc(N2CCOCC2)cc1)Nc1ccc2nc(-c3ccco3)c(-c3ccco3)nc2c1
[1]
  EC50: 2.92 µM (active)
[2]
  IC50: > 79 µM (inactive)

## COc1ccc(CNC(=O)c2sc(=S)n(-c3ccccc3)c2N)cc1
[1]
  EC50: > 71.5 µM (inactive)
[3]
  EC50: > 195 µM (not active)

## Cc1ccc(C(=O)Nc2ccc3c(c2)ncn3C)cc1
[1]
  EC50: > 71.4 µM (inactive)

## CC1Cc2ccccc2N1S(=O)(=O)c1cccc2nsnc12 (stereo not given)
[4]
  IC50: > 50 µM (inactive)

## O=C(c1ccc(N2CCCC2=O)cc1)N1CCCCCC1
[4]
  IC50: > 50 µM (inactive)
[5]
  IC50: 6.62 µM (not active)

## COc1ccccc1N(C)S(=O)(=O)c1ccc(Cl)c(C(=O)NNC(=O)c2ccccc2O)c1
[6]
  EC50: 15.7 µM (active)
[7]
  EC50: 11.5 µM (active)
[8]
  EC50: 26.5 µM (active)
[9]
  EC50: > 100 µM (inactive)

## CCOC(=O)C[n+]1c(C)n(C)c2cc(Cl)c(Cl)cc21
[10]
  IC50: 2.26 µM (active)
[11]
  IC50: 2.2 µM (active)

## COC(=O)c1ccccc1NC(=O)c1cc[n+](C)cc1
[10]
  IC50: 3.62 µM (active)
[11]
  IC50: 4.04 µM (active)

## O=C(N/N=C/c1c(F)cccc1Cl)c1cc(C2CC2)[nH]n1
[6]
  EC50: 40.6 µM (active)
[7]
  EC50: 21.5 µM (active)
[8]
  EC50: 41.3 µM (active)
[9]
  EC50: > 100 µM (inactive)

## CCOc1ccc(/N=C2/SCCCN2C)cc1
[10]
  IC50: 2.19 µM (active)
[12]
  IC50: 17 µM (active)
[11]
  IC50: 2.35 µM (active)

## N#CCC(=O)N/N=C/c1cn(Cc2ccc(Cl)c(Cl)c2)c2ccccc12
[13]
  IC50: > 56.8 µM (not active)
[14]
  IC50: > 50 µM (inactive)
